Reference: patent US11351173B2, “Substituted pyrrolo[1,2-a]pyrimidines and their use in the treatment of medical disorders” (Bial—R&D Investments, S.A., priority 2014, dated 2022)
In brackets after ≈: the same amount, converted by molar mass.

Assays:
[1] = Compound solubility in water; details: in water; for solubility: water, Compound Solubility in Water
[2] = target: T1, glucocerebrosidase (Gcase) (Homo sapiens, UniProt P04062); assay: Glucocerebrosidase (Gcase) activation assay, 4-methylumbelliferyl-beta-D-glucopyranoside substrate, fluorescence readout; assay type: biochemical; details: for activation at 0.1 µM / Percent Gcase Activation, 0.1 μM Test Compound: test compound at 0.1 μM; for activation at 0.1 µM: read-out: Percent Gcase Activation, 0.1 μM Test Compound; for activation at 1 µM / Percent Gcase Activation, 1 μM Test Compound: test compound at 1.0 μM; for activation at 1 µM: read-out: Percent Gcase Activation, 1 μM Test Compound
T1 construct: micellar solution containing 10 nM GCase and 100 nM saposin C
T1 sequence (P04062 40-536): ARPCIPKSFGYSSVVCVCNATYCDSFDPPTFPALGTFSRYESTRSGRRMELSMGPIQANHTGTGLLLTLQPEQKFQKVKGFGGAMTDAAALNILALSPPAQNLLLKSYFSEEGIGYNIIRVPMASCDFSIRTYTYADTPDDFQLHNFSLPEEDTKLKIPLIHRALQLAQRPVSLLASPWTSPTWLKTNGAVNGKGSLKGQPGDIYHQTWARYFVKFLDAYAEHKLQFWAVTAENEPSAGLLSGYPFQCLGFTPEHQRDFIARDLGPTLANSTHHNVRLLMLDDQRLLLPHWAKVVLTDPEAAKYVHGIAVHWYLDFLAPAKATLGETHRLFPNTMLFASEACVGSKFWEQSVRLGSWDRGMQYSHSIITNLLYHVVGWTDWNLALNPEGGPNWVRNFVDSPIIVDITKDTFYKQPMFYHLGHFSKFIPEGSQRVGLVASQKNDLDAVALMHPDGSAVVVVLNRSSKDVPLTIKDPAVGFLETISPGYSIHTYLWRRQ
Summary of the method: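 Test compounds are first screened at 1.0 and 0.1 μM final, then titrated in 8 points (3-fold from 5 μM) against human GCase with saposin C in phosphatidylserine/triton X-100 micelles at pH 4.7. Reactions run 15 min at room temperature, with fluorescence read at 365/440 nm.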

solubility [1] | activation at 0.1 µM [2] | activation at 1 µM [2] | Compound Solubility in Water [1] | Percent Gcase Activation, 0.1 μM Test Compound [2] | Percent Gcase Activation, 1 μM Test Compound [2] | SMILES
13.8 µg/mL (≈ 34.7 µM) | < 10% | < 30% | – | – | – | Cc1cc(C)n2ccc(C(=O)NC3CCCc4ccc(S(C)(=O)=O)cc43)c2n1 (centres unmarked) [III-230]
20.1 µg/mL (≈ 49.3 µM) | 10 to 20% | > 60% | – | – | – | CCOCCOC1CCC(NC(=O)c2ccn3c(C)cc(C)nc23)c2ccccc21 (centres unmarked) [III-231]
9.4 µg/mL (≈ 28.5 µM) | < 10% | < 30% | – | – | – | CCOC1(C)CCC(NC(=O)c2ccn3c(C)cc(C)nc23)CC1 (centres unmarked) [III-232]
2.1 µg/mL (≈ 6.22 µM) | > 20% | > 60% | – | – | – | COc1ccccc1C(C)(C)NC(=O)c1ccn2c(C)cc(C)nc12 [III-233]
1.5 µg/mL (≈ 4.2 µM) | > 20% | > 60% | – | – | – | CCCCCOC1CCCC(NC(=O)c2ccn3c(C)cc(C)nc23)C1 (centres unmarked) [III-234]
25.1 µg/mL (≈ 73.7 µM) | < 10% | < 30% | – | – | – | Cc1cc(C)n2ccc(C(=O)NC3CCN(CC(F)(F)F)C3)c2n1 (centres unmarked) [III-235]
9.9 µg/mL (≈ 28.8 µM) | 10 to 20% | > 60% | – | – | – | CO[C@H]1CC[C@H](C(C)(C)NC(=O)c2ccn3c(C)cc(C)nc23)CC1 [III-236]
1.6 µg/mL (≈ 4.66 µM) | 10 to 20% | > 60% | – | – | – | CO[C@H]1CC[C@@H](C(C)(C)NC(=O)c2ccn3c(C)cc(C)nc23)CC1 [III-238]
21.4 µg/mL (≈ 62.3 µM) | 10 to 20% | > 60% | – | – | – | CCCO[C@H]1CC[C@H](CNC(=O)c2ccn3c(C)cc(C)nc23)CC1 [III-240]
11 µg/mL (≈ 32 µM) | 10 to 20% | > 60% | – | – | – | CC[C@@H](C)O[C@H]1CC[C@H](NC(=O)c2ccn3c(C)cc(C)nc23)CC1 [III-241]
1.3 µg/mL (≈ 3.49 µM) | 10 to 20% | > 60% | – | – | – | Cc1cc(C)n2ccc(C(=O)NC3Cc4ccc(-c5ncco5)cc4C3)c2n1 (centres unmarked) [III-242]
27.7 µg/mL (≈ 81.9 µM) | < 10% | < 30% | – | – | – | Cc1cc(C)n2ccc(C(=O)NC3CCC(c4ncco4)CC3)c2n1 (centres unmarked) [III-245]
– | – | – | 20.3 µg/mL | * (less than 10% Gcase activation) | + (less than 30% Gcase activation) | Cc1cc(C)n2ccc(C(=O)NC3CCC(c4ncco4)CC3)c2n1 (centres unmarked) [III-246]
27.1 µg/mL (≈ 80.6 µM) | < 10% | 30 to 60% | – | – | – | Cc1cc(C)n2ccc(C(=O)NC3CC=C(c4ncco4)CC3)c2n1 (centres unmarked) [III-247]
– | 10 to 20% | > 60% | 28.2 µg/mL | – | – | Cc1cc(C(F)(F)F)nc2c(C(=O)NC3CCC4(CCCCO4)C3)ccn12 (centres unmarked) [III-248]
– | – | – | 12.6 µg/mL | – | +++ (Gcase activation greater than 60%) | Cc1cc(C(F)(F)F)nc2c(C(=O)NC3CCC4(CCCCO4)C3)ccn12 (centres unmarked) [III-249]
0.2 µg/mL (≈ 0.536 µM) | > 20% | > 60% | – | – | – | Cc1cc(C(F)(F)F)nc2c(C(=O)NC3CCCc4ccccc43)ccn12 (centres unmarked) [III-251]
1.8 µg/mL (≈ 4.66 µM) | 10 to 20% | > 60% | – | – | – | Cc1cc(C(F)(F)F)nc2c(C(=O)Nc3ccc(-c4cocn4)cc3)ccn12 [III-252]
0.6 µg/mL (≈ 1.61 µM) | < 10% | 30 to 60% | – | – | – | Cc1cc(C(F)(F)F)n2ccc(C(=O)NC3CCCc4ccccc43)c2n1 (centres unmarked) [III-253]
0.6 µg/mL (≈ 1.55 µM) | < 10% | < 30% | – | – | – | Cc1cc(C(F)(F)F)n2ccc(C(=O)Nc3ccc(-c4cocn4)cc3)c2n1 [III-254]

solubility [1] | activation at 0.1 µM [2] | activation at 1 µM [2] | Compound Solubility in Water [1] | Percent Gcase Activation, 0.1 μM Test Compound [2] | Percent Gcase Activation, 1 μM Test Compound [2] | SMILES
3.5 µg/mL (≈ 11.5 µM) | > 20% | > 60% | – | – | – | Cc1ccnc2c(C(=O)N[C@H]3CCCc4ccccc43)ccn12 [III-255]
4 µg/mL (≈ 12.6 µM) | < 10% | > 60% | – | – | – | Cc1ccnc2c(C(=O)Nc3ccc(-c4ncco4)cc3)ccn12 [III-256]
28.9 µg/mL (≈ 89.9 µM) | 10 to 20% | > 60% | – | – | – | Cc1ccnc2c(C(=O)NC3(C)CCOc4ccccc43)ccn12 (centres unmarked) [III-257]
7.6 µg/mL (≈ 22.4 µM) | < 10% | > 60% | – | – | – | Cc1ccnc2c(C(=O)NC3(C)CCOc4c(F)cccc43)ccn12 (centres unmarked) [III-258]
16.7 µg/mL (≈ 56.9 µM) | < 10% | 30 to 60% | – | – | – | Cc1ccnc2c(C(=O)NC(C)(C)c3ccccc3)ccn12 [III-259]
17.7 µg/mL (≈ 51.5 µM) | 10 to 20% | > 60% | – | – | – | CCCCCO[C@H]1CC[C@H](NC(=O)c2ccn3c(C)ccnc23)CC1 [III-260]
12.7 µg/mL (≈ 42.7 µM) | 10 to 20% | 30 to 60% | – | – | – | Cc1ccnc2c(C(=O)N[C@H](C)c3ccc(F)cc3)ccn12 [III-261]
0.9 µg/mL (≈ 2.82 µM) | > 20% | > 60% | – | – | – | Cc1ccnc2c(C(=O)NC3(C)CCCc4ccccc43)ccn12 (centres unmarked) [III-262]
7.1 µg/mL (≈ 23.2 µM) | > 20% | > 60% | – | – | – | [2H]C1(NC(=O)c2ccn3c(C)ccnc23)CCCc2ccccc21 (centres unmarked) [III-263]
12.5 µg/mL (≈ 36.8 µM) | 10 to 20% | > 60% | – | – | – | Cc1ccnc2c(C(=O)NC3(C)CCOc4ccc(F)cc43)ccn12 (centres unmarked) [III-264]
2 µg/mL (≈ 6.28 µM) | < 10% | < 30% | – | – | – | Cc1ccn2ccc(C(=O)Nc3ccc(-c4ncco4)cc3)c2n1 [III-265]
0.9 µg/mL (≈ 2.11 µM) | 10 to 20% | > 60% | – | – | – | COCc1cc(C2CC2)nc2c(C(=O)NC3(C)CCOc4cc(F)c(F)cc43)ccn12 (centres unmarked) [III-266]
0.4 µg/mL (≈ 0.931 µM) | < 10% | > 60% | – | – | – | CCCc1cc(COC)n2ccc(C(=O)NC3(C)CCOc4cc(F)c(F)cc43)c2n1 (centres unmarked) [III-267]
2.1 µg/mL (≈ 5.26 µM) | > 20% | > 60% | – | – | – | CCCCO[C@H]1CC[C@H](NC(=O)c2ccn3c(COC)cc(C4CC4)nc23)CC1 [III-268]
0.8 µg/mL (≈ 1.99 µM) | 10 to 20% | > 60% | – | – | – | CCCCO[C@H]1CC[C@H](NC(=O)c2ccn3c(COC)cc(CCC)nc23)CC1 [III-269]
3 µg/mL (≈ 7.02 µM) | < 10% | 30 to 60% | – | – | – | COCc1cc(C2CC2)n2ccc(C(=O)NC3(C)CCOc4cc(F)c(F)cc43)c2n1 (centres unmarked) [III-270]
0.7 µg/mL (≈ 2 µM) | > 20% | > 60% | – | – | – | Cc1cc(C)n2c(F)cc(C(=O)Nc3ccc(-c4cocn4)cc3)c2n1 [III-271]
15.8 µg/mL (≈ 46.5 µM) | < 10% | > 60% | – | – | – | C#CCCCOC1CCC(NC(=O)c2ccn3c(C)cc(C)nc23)C1 (centres unmarked) [III-272]
0.005 µg/mL (≈ 0.0142 µM) | – | – | – | *** (greater than 20% Gcase activation) | +++ (Gcase activation greater than 60%) | CCCCCOc1ccc(NC(=O)c2ccn3c(C)cc(C)nc23)cc1 [III-273]
0.06 µg/mL (≈ 0.181 µM) | – | – | – | *** (greater than 20% Gcase activation) | +++ (Gcase activation greater than 60%) | Cc1cc(C)n2ccc(C(=O)Nc3ccc(-c4ncco4)cc3)c2n1 [III-274]
